Measured values reported in patent US9284325B2, “Spectinamides as anti-tuberculosis agents” (UNIVERSITY OF TENNESSEE RESEARCH FOUNDATION, priority 2009, dated 2016).
Where a name gives a salt, the structure may show the parent alone. Read-outs that look alike come from different tables or passages of the source.

Key:
M. tuberculosis H37Rv = test: MIC determination by microbroth dilution, anti-tuberculosis activity; assay type: cell-based, Mycobacterium tuberculosis
[1] = system: S. aureus 8325 or strain ATCC 29213; test: MIC determination by microbroth dilution; assay type: cell-based, Staphylococcus aureus; conditions: S. aureus 8325 or strain ATCC 29213 (for 1471-1544); for MIC: Staphylococcus aureus, ATCC29213
[2] = system: Strep. pyogenes ATCC 700294; test: MIC determination by microbroth dilution; assay type: cell-based, Streptococcus pyogenes; conditions: for MIC: Streptococcus pyogenes, ATCC700294, read-out: MIC S. pyogenes
[3] = system: Strep. pneumoniae DAW27 or strain R6; test: MIC determination by microbroth dilution; assay type: cell-based, Streptococcus pneumoniae; conditions: Strep. pneumoniae DAW27 or strain R6 (for 1443-1544); for MIC: Streptococcus pneumoniae, read-out: MIC S. pneumoniae
E. faecalis ATCC 33186 = test: MIC determination by microbroth dilution; assay type: cell-based, Enterococcus faecalis; conditions: for MIC: Enterococcus faecalis, ATCC33186
B. anthracis Sterne 34F2 = test: microbe, parasite or virus in culture; assay type: cell-based, Bacillus anthracis; conditions: for MIC: Bacillus anthracis, STERNE34F2, read-out: MIC B. anthracis 34F2
[4] = system: Burkholderia cepacia ATCC 25416; test: MIC determination by microbroth dilution; assay type: cell-based; conditions: for MIC: ATCC25416, read-out: MIC B. cepcia
[5] = system: Proteus mirabilis ATCC 25933; test: MIC determination by microbroth dilution; assay type: cell-based; conditions: for MIC: ATCC25933
[6] = system: Proteus vulgaris ATCC 33420; test: MIC determination by microbroth dilution; assay type: cell-based; conditions: for MIC: ATCC33420
[7] = system: Klebsiella pneumoniae ATCC 33495; test: MIC determination by microbroth dilution; assay type: cell-based; conditions: for MIC: ATCC33495
[8] = system: Acinetobacter baumannii ATCC 19606; test: MIC determination by microbroth dilution; assay type: cell-based; conditions: for MIC: ATCC19606
P. aeruginosa PAO1 = test: MIC determination by microbroth dilution; assay type: cell-based, Pseudomonas aeruginosa; conditions: for MIC: Pseudomonas aeruginosa
[9] = system: Strenotrophomonas maltophilia ATCC 13637; test: MIC determination by microbroth dilution; assay type: cell-based
E. coli K12 = test: MIC determination by microbroth dilution; assay type: cell-based, Escherichia coli; conditions: for MIC: Escherichia coli, K12
E. coli K12 ΔtolC = test: microbe, parasite or virus in culture; assay type: cell-based; conditions: for MIC E. coli K12 ΔtolC: tolC knockout strain, defective multi-drug efflux pump; for MIC: Escherichia coli, read-out: MIC E. coli K12 ΔtolC
E. coli ribosomes = assay type: biochemical; conditions: for IC50, 50% inhibition of luciferase biosynthesis in S30 assay: E. coli S30 transcription/translation assay; for relative inhibitory activity on luciferase production: tested at 0.66 and 6.6 μM, FIG. 5
[10] = Mycobacterium tuberculosis, H37RV, 168 h, read-out: MIC

3′-Dihydro-3′-deoxy-4(R)-dodecanoylamino spectinomycin Dihydrochloride [Compound 1366]
15.3 µg/mL: IC50, 50% inhibition of luciferase biosynthesis in S30 assay (E. coli ribosomes)
25 µg/mL: MIC S. aureus [1] | MIC S. pneumoniae [3] | MIC E. faecalis (E. faecalis ATCC 33186) | MIC S. mal [9]
12.5 µg/mL: MIC E. coli K12 ΔtolC (E. coli K12 ΔtolC)
>200 µg/mL: MIC S. pyogenes [2] | MIC B. anthracis 34F2 (B. anthracis Sterne 34F2) | MIC B. cepcia [4] | MIC P. mir [5] | MIC P. vul [6] | MIC K. pneu. [7] | MIC A. bau. [8] | MIC E. coli K12 (E. coli K12)
1.6 µg/mL: MIC (M. tuberculosis H37Rv)
50 µg/mL: MIC P. aer. (P. aeruginosa PAO1)

3′-Dihydro-3′-deoxy-4(R)-dodecylamino spectinomycin Trihydrochloride [Compound 1421]
200 µg/mL: MIC S. aureus [1] | MIC S. pneumoniae [3] | MIC E. faecalis (E. faecalis ATCC 33186) | MIC B. anthracis 34F2 (B. anthracis Sterne 34F2) | MIC E. coli K12 (E. coli K12)
50 µg/mL: MIC S. pyogenes [2] | MIC B. cepcia [4] | MIC A. bau. [8] | MIC E. coli K12 ΔtolC (E. coli K12 ΔtolC)
less active than 1329: relative inhibitory activity on luciferase production (E. coli ribosomes)
12.5 µg/mL: MIC S. mal [9]
25 µg/mL: MIC (M. tuberculosis H37Rv)
>200 µg/mL: MIC P. mir [5] | MIC P. vul [6] | MIC K. pneu. [7] | MIC P. aer. (P. aeruginosa PAO1)

CN[C@@H]1[C@H](O)[C@H](NC)C2O[C@]3(O)C(OC2[C@H]1O)O[C@H](C)C[C@H]3NC(=O)CCc1cccnc1 (stereo partly drawn) [Compound 1299, 3′-Dihydro-3′-deoxy-4(R)-(3-pyridin-3-yl)propionylamino spectinomycin Dihydrochloride]
25 µg/mL: MIC (M. tuberculosis H37Rv; [10])
> 200 µg/mL: MIC (E. faecalis ATCC 33186) | MIC [4] | MIC [5] | MIC [6] | MIC [7] | MIC [8] | MIC (P. aeruginosa PAO1) | MIC [9] | MIC (E. coli K12)
200 µg/mL: MIC [1] | MIC [2] | MIC [3] | MIC (B. anthracis Sterne 34F2) | MIC (E. coli K12 ΔtolC)
0.97 µg/mL: IC50, 50% inhibition of luciferase biosynthesis in S30 assay (E. coli ribosomes)

CN[C@@H]1[C@H](O)[C@H](NC)C2O[C@]3(O)C(OC2[C@H]1O)O[C@H](C)C[C@H]3NC(=O)CNC(C)(C)C (stereo partly drawn) [Compound 1351, 3′-Dihydro-3′-deoxy-4(R)-(tert-butylamino)-acetylamino spectinomycin Dihydrochloride]
> 200 µg/mL: MIC (E. faecalis ATCC 33186) | MIC [4] | MIC [5] | MIC [6] | MIC [8] | MIC (E. coli K12)
0.22 µg/mL: IC50, 50% inhibition of luciferase biosynthesis in S30 assay (E. coli ribosomes)
next most active: relative inhibitory activity on luciferase production (E. coli ribosomes)
25 µg/mL: MIC (M. tuberculosis H37Rv; [10])
200 µg/mL: MIC [1] | MIC [3] | MIC [7] | MIC (P. aeruginosa PAO1)
100 µg/mL: MIC [2]
50 µg/mL: MIC (B. anthracis Sterne 34F2) | MIC [9] | MIC (E. coli K12 ΔtolC)

CN[C@@H]1[C@H](O)[C@H](NC)C2O[C@]3(O)C(OC2[C@H]1O)O[C@H](C)C[C@H]3NC(=O)c1ccc(F)cc1 (stereo partly drawn) [Compound 1364, 3′-Dihydro-3′-deoxy-4(R)-4-fluorobenzoylamino spectinomycin Dihydrochloride]
200 µg/mL: MIC (B. anthracis Sterne 34F2)
50 µg/mL: MIC (M. tuberculosis H37Rv; [10])
less active than 1329: relative inhibitory activity on luciferase production (E. coli ribosomes)
100 µg/mL: MIC [2] | MIC (E. coli K12 ΔtolC)
> 200 µg/mL: MIC [1] | MIC [3] | MIC (E. faecalis ATCC 33186) | MIC [4] | MIC [5] | MIC [6] | MIC [7] | MIC [8] | MIC (P. aeruginosa PAO1) | MIC [9] | MIC (E. coli K12)

CN[C@@H]1[C@H](O)[C@H](NC)C2O[C@]3(O)C(OC2[C@H]1O)O[C@H](C)C[C@H]3NC(=O)c1ccco1 (stereo partly drawn) [Compound 1365, 3′-Dihydro-3′-deoxy-4(R)-furan-2-carboxylicamino spectinomycin Dihydrochloride]
less active than 1329: relative inhibitory activity on luciferase production (E. coli ribosomes)
> 200 µg/mL: MIC [1] | MIC [2] | MIC [3] | MIC (E. faecalis ATCC 33186) | MIC (B. anthracis Sterne 34F2) | MIC [4] | MIC [5] | MIC [6] | MIC [7] | MIC [8] | MIC (P. aeruginosa PAO1) | MIC [9] | MIC (E. coli K12)
100 µg/mL: MIC (M. tuberculosis H37Rv; [10])
200 µg/mL: MIC (E. coli K12 ΔtolC)

CN[C@@H]1[C@H](O)[C@H](NC)C2O[C@]3(O)C(OC2[C@H]1O)O[C@H](C)C[C@H]3NC(=O)Cc1ccc(F)cc1 (stereo partly drawn) [Compound 1367, 3′-Dihydro-3′-deoxy-4(R)-(4-fluoro-phenyl)-acetylamino spectinomycin Dihydrochloride]
200 µg/mL: MIC (E. faecalis ATCC 33186) | MIC (E. coli K12)
3.1 µg/mL: MIC (M. tuberculosis H37Rv; [10])
50 µg/mL: MIC [1] | MIC [2] | MIC [3] | MIC (B. anthracis Sterne 34F2) | MIC (E. coli K12 ΔtolC)
100 µg/mL: MIC (P. aeruginosa PAO1)
> 200 µg/mL: MIC [4] | MIC [5] | MIC [6] | MIC [7] | MIC [8] | MIC [9]
1.05 µg/mL: IC50, 50% inhibition of luciferase biosynthesis in S30 assay (E. coli ribosomes)

CN[C@@H]1[C@H](O)[C@H](NC)C2O[C@]3(O)C(OC2[C@H]1O)O[C@H](C)C[C@H]3NC(=O)Cc1cccnc1 (stereo partly drawn) [Compound 1368, 3′-Dihydro-3′-deoxy-4(R)-(pyridin-3-yl)acetylamino spectinomycin Dihydrochloride]
6.25 µg/mL: MIC (B. anthracis Sterne 34F2)
50 µg/mL: MIC [1]
12.5 µg/mL: MIC (M. tuberculosis H37Rv; [10])
> 200 µg/mL: MIC [2] | MIC [3] | MIC (E. faecalis ATCC 33186) | MIC [4] | MIC [5] | MIC [6] | MIC [7] | MIC [8] | MIC (P. aeruginosa PAO1) | MIC [9] | MIC (E. coli K12 ΔtolC)
100 µg/mL: MIC (E. coli K12)
1.08 µg/mL: IC50, 50% inhibition of luciferase biosynthesis in S30 assay (E. coli ribosomes)

CN[C@@H]1[C@H](O)[C@H](NC)C2O[C@]3(O)C(OC2[C@H]1O)O[C@H](C)C[C@H]3NC(=O)CC(C)C (stereo partly drawn) [Compound 1369, 3′-Dihydro-3′-deoxy-4(R)-(3-methyl)-butanoylamino spectinomycin Dihydrochloride]
200 µg/mL: MIC (M. tuberculosis H37Rv; [10]) | MIC (B. anthracis Sterne 34F2)
> 200 µg/mL: MIC [1] | MIC [2] | MIC [3] | MIC (E. faecalis ATCC 33186) | MIC [4] | MIC [5] | MIC [6] | MIC [7] | MIC [8] | MIC (P. aeruginosa PAO1) | MIC [9] | MIC (E. coli K12) | MIC (E. coli K12 ΔtolC)
less active than 1329: relative inhibitory activity on luciferase production (E. coli ribosomes)

CN[C@@H]1[C@H](O)[C@H](NC)C2O[C@]3(O)C(OC2[C@H]1O)O[C@H](C)C[C@H]3NC(=O)c1ccccn1 (stereo partly drawn) [Compound 1370, 3′-Dihydro-3′-deoxy-4(R)-pyridin-2-carboxylicamino spectinomycin Dihydrochloride]
less active than 1329: relative inhibitory activity on luciferase production (E. coli ribosomes)
100 µg/mL: MIC (M. tuberculosis H37Rv; [10]) | MIC (E. coli K12 ΔtolC)
> 200 µg/mL: MIC [1] | MIC [2] | MIC [3] | MIC (E. faecalis ATCC 33186) | MIC [4] | MIC [5] | MIC [6] | MIC [7] | MIC [8] | MIC (P. aeruginosa PAO1) | MIC [9]
0.89 µg/mL: IC50, 50% inhibition of luciferase biosynthesis in S30 assay (E. coli ribosomes)
200 µg/mL: MIC (E. coli K12)
50 µg/mL: MIC (B. anthracis Sterne 34F2)

CN[C@@H]1[C@H](O)[C@H](NC)C2O[C@]3(O)C(OC2[C@H]1O)O[C@H](C)C[C@H]3NC(=O)Cc1ccccc1 (stereo partly drawn) [Compound 1398, 3′-Dihydro-3′-deoxy-4(R)-phenylacetylamino spectinomycin Dihydrochloride]
6.1 µg/mL: MIC (M. tuberculosis H37Rv; [10])
> 200 µg/mL: MIC (E. faecalis ATCC 33186) | MIC [4] | MIC [5] | MIC [6] | MIC [7] | MIC [8] | MIC [9] | MIC (E. coli K12)
50 µg/mL: MIC [2]
200 µg/mL: MIC (E. coli K12 ΔtolC)
100 µg/mL: MIC [1] | MIC [3] | MIC (B. anthracis Sterne 34F2) | MIC (P. aeruginosa PAO1)
0.78 µg/mL: IC50, 50% inhibition of luciferase biosynthesis in S30 assay (E. coli ribosomes)
